The values below come from US4731471A, “(5,6-dichloro-3-oxo-2,3,9,9a-tetrahydrofluoren-7-yl)-alkanoic acids and alkanimidamides bearing novel functional 9a-substituents” (Merck & Co., Inc., priority 1986, dated 1988).

The subject of test [1] is cerebrocartical tissue slices from cats. The experiment in a line: in vitro cat cerebrocortical tissue slice assay (HCO3^- -stimulated swelling). The settings on record: Felis catus, racemate. The source says:
This assay is described in detail in articles by: Cragoe, E. J., Jr.; Gould, N. P.; Woltersdorf, O. W., Jr.; Ziegler, C.: Bourke, R. S.; Nelson, L. R.; Kimelberg, H. K.; Waldman, J. B.; Popp, A. J.; Sedransk, N. J. Med. Chem. 1982, 25, 567, and by Rourke, R. S.: Kimelberg, H. K.; Daze, M.; Church, G. Neurochem. Res. 1983, 8, 5.
Cat pial surface slices (~0.5 mm thick) were cut from the cerebral convexities using a Stadie-Riggs microtome without any moistening. Each slice was then weighed on a torsion balance and immediately placed in a Warburg flask containing 2 mL incubation medium at room temperature (22° C.).
The basic composition of the incubation medium in mmol/l was: KCl, 27; NaCl, 100; glucose, 10; KH2 PO4, 1.2: MgSO4, 1.2; CaCl2, 1.3; HEPES (N-2-hydroxyethylpiperazine-N'-2-ethanesulfonic acid (Sigma)). This solution was titrated with NaOH to pH 7.8, and saturated with oxygen by bubbling the gas through the solution.
To obtain HCO3^- dependent swelling, a solution of NaHCO3 in the above medium was added from the side-arm of the flask to slices which had been incubated in 2 mL of medium without added HCO3 at 37° C. for 20 minutes to achieve a final concentration of 5 mmol. The slices were then incubated for an additional 40 minutes. For control experiments,0.5 mL of the medium without HCO3^- was similarly added from the side-arm. Inhibitors, when used, were present with the slices throughout the 60 minute incubation period. After 60 minutes, the tissue slices were separated from the medium by careful vacuum filtration, re-weighed, and then homogenized (10% w/v suspension) in 1N perchloric acid and then centrifuged. The supernatant was then assayed for electrolytes as previously described.
The tissue content of electrolytes is always expressed as micromoles per gram of the initial wet weight. Percent swelling was calculated as (final wet weight minus initial wet weight/initial wet weight)×100 and HCO3^- dependent swelling would be the increased swelling of slices due to added HCO3^- in media containing 28-29 mmol K^+. Such HCO3^- stimulated swelling is not seen in medium with a normal K^+ concentration (4 to 5 mmol).
The (1) in vitro cat cerebrocortical tissue slice assay, (2) the in vitro primary rat astrocyte culture assay and (3) the in vivo cat head injury assay. The first assay, the in vitro cat cerebrocortical tissue slice assay has been described by Marshall, L. F.; Shapiro, H. M.; Smith, R. W. In "Seminars in Neurological Surgery: Neural Trauma"; Popp, A. J.; Bourke, R. S.; Nelson, L. R.; Kimelberg, H, K,. Eds.; Raven Press: New York, 1979; p. 347, by Bourke, R. S.; Kimelberg, H, K.; Daze, M. A. in Brain Res. 1978, 154, 196, and by Bourke, R. S.; Kimelberg, H. K,; Nelson, L. R. in Brain Res. 1976, 105, 309. This method constitutes a rapid and accurate method of determining the intrinsic chloride inhibitory properties of the compounds of the invention in the target tissue.
Using in vitro cat cerebrocortical tissue slice assay, described in Example 1, compounds of the present invention can be tested for activity. This test provides the principal in vitro evaluation and consists of a determination of concentration vs. response curve. The addition of HCO3^- to isotonic, K^+ -rich saline-glucose incubation media is known to specifically stimulate the transport of Cl^- coupled with Na^+ and an osmotic equivalent of water in incubating slices of mammalian cerebral cortex. […] After addition of drug to the incubation media, detailed drug concentration-response curves are then obtained. The data are expressed as percent HCO3^- -stimulated swelling vs. drug concentration, from which the concentration of drug providing 50% inhibition of HCO3^- -stimulated swelling (I50 in molarity) is interpolated.
Adult cats of 2-3 kg body weight are employed in tissue slice studies. Prior to sacrifice, the animals are anesthetized with ketamine hydrochloride (Ketaset), 10 mg/kg intramuscularly. […]

For test [2], the system named is experimental head injury. To be noted: cited from earlier work.
For test [3], the system named is clinical cases of head injury. To be noted: cited from earlier work.
Test [4] has as its system astroglial edema. To be noted: cited from earlier work.

Structures are written as SMILES.

In general, inhibition refers to how much of the control response was suppressed. Lower therefore signals a response near the control. Consider `O=C(O)COc1cc2c(c(Cl)c1Cl)C1=CC(=O)CCC1(CCO)C2` (racemic) [Example 2, {[5,6-Dichloro-9a-(2-hydroxyethyl)-3-oxo-2,3,9,9a-tetrahydro-1H-fluoren-7-yl]oxy}acetic acid], for which the inhibition at 0.1 µM in test [1] (Conc. 10^-7 M) is 19%. Also, the inhibition at 0.01 µM in test [1] (Conc. 10^-8 M) is 92%. In addition, testing at 0.001 µM in test [1] (Conc. 10^-9 M) gave an inhibition of 75%. In test [1] (Conc. 10^-10 M), this compound gave an inhibition at 0.0001 µM of 85%. Also, the inhibition at 10 pM in test [1] (Conc. 10^-11 M) was determined as 53%. Moreover, the inhibition at 1 pM in test [1] (Conc. 10^-12 M) worked out at 15%.
For the compound `C=C(CC)C(=O)c1ccc(OCC(=O)O)c(Cl)c1Cl` [ethacrynic acid], the “activity in in vivo assay” value in test [2] is “exhibited activity”. In addition, the “reducing mortality in clinical cases of head injury” value in test [3] is listed as “effective in reducing mortality in clinical cases of head injury”. In addition, the “activity in in vitro assay” value in test [4] is “exhibited activity”.
